Test results: the supplement of paper PMC10307832

Columns and labels:
Test in all cases: relative viability (nuclei count vs DMSO), 5 days (fraction); higher = more cells survive
Entinostat + OSI-027 = compound: Nc1ccccc1NC(=O)c1ccc(CNC(=O)OCc2cccnc2)cc1 [Entinostat] + COc1cccc2cc(-c3nc([C@H]4CC[C@H](C(=O)O)CC4)n4ncnc(N)c34)[nH]c12 [OSI-027] (partner 0.5 µM)
Method in brief: (§1)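 One day after seeding in 1536-well plates, lung cancer cell lines were dosed by pin tool. Dosing was either single-drug or a fixed anchor-drug dose plus five library-drug doses (not always all listed) in √10 steps. After 5 days, nuclei were stained in one fix-and-stain step and counted on 4× images, and relative viability is the nuclei count of treated wells over that of vehicle wells, given as the median of duplicate plates.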

SGI-1776 + Foretinib = compound: CN1CCC(CNc2ccc3ncc(-c4cccc(OC(F)(F)F)c4)n3n2)CC1 [SGI-1776] + COc1cc2c(Oc3ccc(NC(=O)C4(C(=O)Nc5ccc(F)cc5)CC4)cc3F)ccnc2cc1OCCCN1CCOCC1 [Foretinib] (partner 0.25 µM)
Method in brief: as §1

[1] = compound: C1COCCN1C2=NC(=NC3=C2OC4=C3C=CC=N4)C5=CC(=CC=C5)NC(=O)C6=CN=C(C=C6)N + CCNC(=O)c1noc(-c2cc(C(C)C)c(O)cc2O)c1-c1ccc(CN2CCOCC2)cc1 [Luminespib] (partner 0.01 µM)
Method in brief: as §1

[2] = compound: C1COCCN1C2=NC(=NC3=C2OC4=C3C=CC=N4)C5=CC(=CC=C5)NC(=O)C6=CN=C(C=C6)N + Nc1nc2[nH]cc(CCc3ccc(C(=O)N[C@@H](CCC(=O)O)C(=O)O)cc3)c2c(=O)[nH]1 [Pemetrexed] (partner 0.2 µM)
Method in brief: as §1

Row | Cell Line | relative viability (Entinostat + OSI-027; first compound 0.02 µM) | relative viability (Entinostat + OSI-027; first compound 0.06325 µM) | relative viability (Entinostat + OSI-027; first compound 0.2 µM) | relative viability (Entinostat + OSI-027; first compound 0.6325 µM) | relative viability (Entinostat + OSI-027; first compound 2 µM) | relative viability (SGI-1776 + Foretinib; first compound 0.08 µM) | relative viability (SGI-1776 + Foretinib; first compound 0.8 µM) | relative viability (SGI-1776 + Foretinib; first compound 2.53 µM) | relative viability (SGI-1776 + Foretinib; first compound 8 µM) | relative viability ([1]; first compound 0.02 µM) | relative viability ([1]; first compound 0.06325 µM) | relative viability ([1]; first compound 0.2 µM) | relative viability ([1]; first compound 0.6325 µM) | relative viability ([1]; first compound 2 µM) | relative viability ([2]; first compound 0.02 µM) | relative viability ([2]; first compound 0.06325 µM) | relative viability ([2]; first compound 0.2 µM) | relative viability ([2]; first compound 0.6325 µM) | relative viability ([2]; first compound 2 µM)
1 | ABC-1 | 0.446 | 0.524 | 0.544 | 0.351 | 0.247 | 1.06 | 0.974 | 0.984 | 0.64 | 0.383 | 1.28 | 0.473 | 0.739 | 0.475 |  |  |  |  | 
2 | LC-2-ad | 0.768 | 0.842 | 0.578 | 0.349 | 0.27 | 0.999 | 0.922 | 0.934 | 0.685 | 0.857 | 1.08 | 1.02 | 1.06 | 0.872 | 0.263 | 0.292 | 0.289 | 0.253 | 0.262
3 | NCI-H441 | 0.592 | 0.562 | 0.592 | 0.308 | 0.233 | 0.992 | 0.925 | 1.17 | 0.728 | 0.284 | 0.314 | 0.324 | 0.501 | 0.25 | 0.278 | 0.251 | 0.248 | 0.245 | 0.251
4 | NCI-H1915 | 0.594 | 0.605 | 0.58 | 0.283 | 0.222 | 1.09 | 1.03 | 1.11 | 1.09 | 0.95 | 0.85 | 0.829 | 0.432 | 0.267 | 0.51 | 0.515 | 0.471 | 0.476 | 0.369
5 | NCI-H1299 |  |  |  |  |  | 1.08 | 1.11 | 1.07 | 1.01 |  |  |  |  |  |  |  |  |  | 
6 | HCC-827 | 0.713 | 0.749 | 0.688 | 0.402 | 0.292 | 1.04 | 1.13 | 1.09 | 0.647 | 0.634 | 0.557 | 0.65 | 0.586 | 0.456 | 0.249 | 0.284 | 0.262 | 0.278 | 0.265
7 | EMC-BAC-2 | 0.376 | 0.423 | 0.368 | 0.305 | 0.256 | 1.02 | 0.99 | 1.11 | 0.846 | 1.25 | 1.32 | 1.08 | 1.03 | 0.648 | 0.458 | 0.462 | 0.465 | 0.462 | 0.444
8 | NCI-H596 | 0.716 | 0.804 | 0.708 | 0.443 | 0.412 | 0.808 | 0.748 | 0.79 | 1.05 | 0.985 | 1.04 | 0.968 | 0.992 | 0.408 | 0.569 | 0.488 | 0.523 | 0.467 | 0.393
9 | NCI-H1792 | 0.752 | 0.753 | 0.609 | 0.569 | 0.43 |  |  |  |  | 0.286 | 0.487 | 0.405 | 0.286 | 0.331 | 1.02 | 0.924 | 0.586 | 0.638 | 0.276
